≈ marks a conversion by molar mass, not a printed value.
Experiments:
[1] = (§1) Toxicity against brine shrimp larvae assessed as mortality after 24 hrs by binocular microscopic analysis; type: organism-based; details: artemia salina, in vivo
Artemia salina = assay: as §1; type: organism-based; details: in vivo, 24 h
[2] = Toxicity against brine shrimp larvae assessed as mortality at 10 ug/mL after 24 hrs by binocular microscopic analysis relative to control; type: organism-based; details: artemia salina, in vivo
[3] = Toxicity against brine shrimp larvae assessed as mortality at 100 ug/mL after 24 hrs by binocular microscopic analysis relative to control; type: organism-based; details: artemia salina, in vivo
[4] = Toxicity against brine shrimp larvae assessed as mortality at 500 ug/mL after 24 hrs by binocular microscopic analysis relative to control; type: organism-based; details: artemia salina, in vivo
[5] = Toxicity against brine shrimp larvae assessed as mortality at 1000 ug/mL after 24 hrs by binocular microscopic analysis relative to control; type: organism-based; details: artemia salina, in vivo
[6] = tested on: Chromobacterium violaceum; assay: Antiquorum-sensing activity against Chromobacterium violaceum ATCC 12472 after 48 hrs; type: functional
Aspergillus flavus = assay: Antifungal activity against Aspergillus flavus 3372 at 5 mg/mL after 48 hrs; type: functional; details: Aspergillus flavus, 3372, 48 h; read-out: DIZ
Aspergillus fumigatus = assay: Antifungal activity against Aspergillus fumigatus Af293 at 5 mg/mL after 48 hrs; type: functional; details: Af293, 48 h, read-out: DIZ
Candida albicans = assay: Antifungal activity against Candida albicans at 5 mg/mL after 48 hrs; type: functional; details: read-out: DIZ
Staphylococcus aureus = assay: Antibacterial activity against Staphylococcus aureus at 5 mg/mL after 24 hrs; type: functional; details: read-out: DIZ
Bacillus cereus = assay: Antibacterial activity against Bacillus cereus at 5 mg/mL after 24 hrs; type: functional; details: read-out: DIZ
Escherichia coli = assay: Antibacterial activity against Escherichia coli at 5 mg/mL after 24 hrs; type: functional; details: read-out: DIZ

| Structure (SMILES) | LC50 at 24 h [1] | LC90 (Artemia salina) | mortality at 24 h, 10 ug/mL [2] | mortality at 24 h, 100 ug/mL [3] | mortality at 24 h, 500 ug/mL [4] | mortality at 24 h, 1000 ug/mL [5] | diameter of the inhibition zone (DIZ) [6] | zone of inhibition at 5000 µg/mL (Aspergillus flavus) | zone of inhibition at 5000 µg/mL (Aspergillus fumigatus) | zone of inhibition at 5000 µg/mL (Candida albicans) | zone of inhibition at 5000 µg/mL (Staphylococcus aureus) | zone of inhibition at 5000 µg/mL (Bacillus cereus) | zone of inhibition at 5000 µg/mL (Escherichia coli) |
| --- | --- | --- | --- | --- | --- | --- | --- | --- | --- | --- | --- | --- | --- |
| CN(C)c1ccc(C2C(C#N)C(=O)N=C3SC(S(N)(=O)=O)=NN32)cc1 (stereo unspecified) | 400 µg/mL (≈ 1060 µM) | 719.42 µg/mL (≈ 1900 µM) | 70% | 86.6% | 96.6% | 100% | 6 mm | < 2 mm | 8 mm | 32 mm | 7 mm | 6 mm | < 2 mm |
| NS(=O)(=O)C1=NN2CCC(=O)N=C2S1 | 399 µg/mL (≈ 1700 µM) | 717.7 µg/mL (≈ 3060 µM) | 70% | 90% | 96.6% | 100% | <2 mm | 10 mm | 8 mm | 12 mm | 16 mm | 4 mm | 11 mm |
| CCOC(=O)C1C(=O)N=C2SC(S(N)(=O)=O)=NN2C1c1ccc(OC)c(OC)c1 (stereo unspecified) | 442 µg/mL (≈ 1000 µM) | 796.46 µg/mL (≈ 1800 µM) | 50% | 70% | 83.3% | 93.3% | 8 mm | < 2 mm | < 2 mm | 4 mm | 8 mm | 7 mm | < 2 mm |
| NS(=O)(=O)C1=NN2CC(=O)N=C2S1 |  |  |  |  |  |  | <2 mm | < 2 mm | < 2 mm | 5 mm | < 2 mm | < 2 mm | < 2 mm |
| OC(Cn1cncn1)(Cn1cncn1)c1ccc(F)cc1F [FLUCONAZOLE] |  |  |  |  |  |  |  | < 2 mm | < 2 mm | 22 mm |  |  |  |
| CCOC(=O)C1C(=O)N=C2SC(S(N)(=O)=O)=NN2C1c1ccc(Cl)cc1 (stereo unspecified) | 508 µg/mL (≈ 1220 µM) | 914.63 µg/mL (≈ 2190 µM) | 36.6% | 53.3% | 70% | 83.3% | 11 mm | < 2 mm | < 2 mm | < 2 mm | 3 mm | 4 mm | < 2 mm |
| COc1ccc(/C=C2\C(=O)N=C3SC(S(N)(=O)=O)=NN32)cc1OC | 425 µg/mL (≈ 1150 µM) | 765.3 µg/mL (≈ 2080 µM) | 63.3% | 76.6% | 86.6% | 96.6% | <2 mm | 7 mm | 16 mm | 4 mm | 4 mm | 4 mm | < 2 mm |
| NS(=O)(=O)C1=NN2C(=O)c3ccccc3NC(c3ccsc3)/N=C\2S1 (stereo unspecified) | 477 µg/mL (≈ 1210 µM) | 858.77 µg/mL (≈ 2180 µM) | 46.6% | 66.6% | 76.6% | 86.6% | 6 mm | < 2 mm | < 2 mm | < 2 mm | < 2 mm | < 2 mm | < 2 mm |
| COc1ccc(C2C(C#N)C(=O)N=C3SC(S(N)(=O)=O)=NN32)cc1OC (stereo unspecified) | 598 µg/mL (≈ 1510 µM) | 1076.55 µg/mL (≈ 2720 µM) | 36.6% | 50% | 60% | 70% | 8 mm | < 2 mm | 8 mm | 24 mm | 10 mm | 9 mm | < 2 mm |
| Cc1ccc(/N=N/c2c(N)n3nc(S(N)(=O)=O)sc3nc2=O)cc1 | 392 µg/mL (≈ 1070 µM) | 706.43 µg/mL (≈ 1930 µM) | 90% | 96.6% | 100% | 100% | 12 mm | 5 mm | 6 mm | 12 mm | 8 mm | 3 mm | 4 mm |
| N=c1cc(N)n2nc(S(N)(=O)=O)sc2n1 |  |  |  |  |  |  | <2 mm | < 2 mm | < 2 mm | < 2 mm | < 2 mm | < 2 mm | < 2 mm |

— ChEMBL document CHEMBL2375302, “Synthesis, antimicrobial, antiquorum-sensing, antitumor and cytotoxic activities of new series of fused [1,3,4]thiadiazoles” (Eur J Med Chem, 2013)
